Experimental data from US11136313B2, “Compounds, compositions, and methods for modulating CFTR” (Proteostasis Therapeutics, Inc., priority 2015, dated 2021).

The compounds below were run against T1, ΔF508-CFTR (Homo sapiens, UniProt P13569, DEL508-508) (assay: hBE equivalent current (Ieq) assay: AUC of equivalent chloride current after forskolin/VX-770 in primary lung epithelial cells homozygous for ΔF508). Settings: relative to CFTR amplifier (Compound A)+VX-809 (3 uM), compound at 10 uM and Compound A at 3 uM, 24 h treatment.
T1 construct: Primary lung epithelial cells homozygous for the Cystic Fibrosis-causing ΔF508 mutation were differentiated for a minimum of 4 weeks; endogenous in cells; host or cells: primary lung epithelial cells (hBE) homozygous for ΔF508, differentiated at an air-liquid interface
T1 sequence (P13569 with tags, fused parts or gaps DEL508-508): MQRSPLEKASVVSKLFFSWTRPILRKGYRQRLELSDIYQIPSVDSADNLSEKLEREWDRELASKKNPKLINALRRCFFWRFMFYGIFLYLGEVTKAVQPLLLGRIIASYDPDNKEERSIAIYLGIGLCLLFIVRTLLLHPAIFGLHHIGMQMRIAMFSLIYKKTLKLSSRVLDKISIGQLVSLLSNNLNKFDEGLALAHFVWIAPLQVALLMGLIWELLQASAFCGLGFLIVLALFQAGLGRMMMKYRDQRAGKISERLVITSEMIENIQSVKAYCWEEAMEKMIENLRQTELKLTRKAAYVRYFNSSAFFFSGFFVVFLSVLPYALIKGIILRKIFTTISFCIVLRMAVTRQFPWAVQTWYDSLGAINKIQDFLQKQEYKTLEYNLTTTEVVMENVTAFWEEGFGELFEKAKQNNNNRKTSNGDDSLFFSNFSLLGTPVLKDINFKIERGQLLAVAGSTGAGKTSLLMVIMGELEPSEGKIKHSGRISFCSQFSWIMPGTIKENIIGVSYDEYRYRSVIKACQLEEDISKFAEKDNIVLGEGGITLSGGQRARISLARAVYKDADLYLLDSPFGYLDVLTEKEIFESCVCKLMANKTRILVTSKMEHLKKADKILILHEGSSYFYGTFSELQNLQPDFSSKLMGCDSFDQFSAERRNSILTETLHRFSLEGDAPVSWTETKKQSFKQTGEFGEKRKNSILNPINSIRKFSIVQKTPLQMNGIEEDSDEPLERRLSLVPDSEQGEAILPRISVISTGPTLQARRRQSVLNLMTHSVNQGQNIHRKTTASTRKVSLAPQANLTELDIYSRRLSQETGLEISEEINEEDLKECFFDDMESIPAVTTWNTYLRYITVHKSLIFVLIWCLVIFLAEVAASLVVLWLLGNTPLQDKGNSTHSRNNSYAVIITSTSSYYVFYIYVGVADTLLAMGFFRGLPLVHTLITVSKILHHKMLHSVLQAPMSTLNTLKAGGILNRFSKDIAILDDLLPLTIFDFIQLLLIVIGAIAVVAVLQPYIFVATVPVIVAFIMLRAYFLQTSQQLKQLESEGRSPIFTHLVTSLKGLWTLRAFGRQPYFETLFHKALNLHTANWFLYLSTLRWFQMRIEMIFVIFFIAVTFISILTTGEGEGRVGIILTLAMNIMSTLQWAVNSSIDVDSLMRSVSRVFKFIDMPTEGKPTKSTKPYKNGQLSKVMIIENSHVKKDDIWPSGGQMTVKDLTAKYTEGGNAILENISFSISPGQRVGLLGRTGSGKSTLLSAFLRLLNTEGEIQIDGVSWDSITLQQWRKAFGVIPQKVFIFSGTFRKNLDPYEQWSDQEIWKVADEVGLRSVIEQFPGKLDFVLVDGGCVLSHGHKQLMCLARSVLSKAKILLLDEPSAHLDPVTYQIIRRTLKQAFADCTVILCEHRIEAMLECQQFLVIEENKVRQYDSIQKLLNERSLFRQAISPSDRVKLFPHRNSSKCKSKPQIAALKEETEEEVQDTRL
Assay type: cell-based
Method: ii. hBE Equivalent Current (Ieq) Assay
Primary lung epithelial cells homozygous for the Cystic Fibrosis-causing ΔF508 mutation were differentiated for a minimum of 4 weeks in an air-liquid interface on Costar 24 well HTS filter plates prior to the equivalent current (Ieq) measurements. Cells were apically mucus-washed for 30 minutes 24 h prior to treatment with compounds. The basolateral media was removed and replaced with media containing the compound of interest diluted to its final concentration from DMSO stocks. Treated cells were incubated at 37° C. and 5% CO2 for 24 hours. At the end of the treatment period, the media was changed to the Ieq experimental solution for 2 hours before the experiment and plates are maintained in a CO2-free incubator during this period. The plates containing the cells were then placed in pre-warmed heating blocks at 36° C.±0.5 for 15 minutes before measurements are taken. The transepithelial voltage (VT) and conductance (GT) were measured using a custom 24 channel current clamp (TECC-24) with 24 well electrode manifold. The Ieq assay measurements were made following additions with standardized time periods: • 1. The baseline VT and GT values were measured for approximately 20 minutes. • 2. Benzamil was added to block ENaC for 15 minutes. • 3. Forskolin plus VX-770 were added to maximally activate ΔF508-CFTR for 27 minutes. • 4. Bumetanide was added to inhibit the NaK2Cl cotransporter and shut-off secretion of chloride.
The activity data captured was the area under the curve (AUC) for the traces of the equivalent chloride current. The AUC was collected from the time of the forskolin/VX-770 addition until the inhibition by bumetanide addition. Correction in response to compound treatment was scored as the increase in the AUC for compound-treated samples over that of vehicle-treated samples.
(+ indicates activity<50% of an CFTR amplifier (Compound A)+VX-809 (3 uM) with compound at 10 uM and Compound A at 3 uM; ++ indicates activity>50% of CFTR amplifier+VX-809 (3 uM) with compound at 10 uM and Compound A at 3 uM.
With `Cc1c(-c2nc(C(=O)O)c3c(OCc4ccccc4)ccc(C)c3n2)oc2ccccc12` [Compound 101, 5-(Benzyloxy)-8-methyl-2-(3-methyl-1-benzofuran-2-yl)quinazoline-4-carboxylic Acid] the Activity was “++ (activity>50% of CFTR amplifier+VX-809 (3 uM) with compound at 10 uM and Compound A at 3 uM)”. In the case of `Cc1c(-c2cc(C(=O)O)c3cc(Cl)cc(C)c3n2)sc2ccccc12` [Compound 104, 6-Chloro-8-methyl-2-(3-methyl-1-benzothiophen-2-yl)quinoline-4-carboxylic acid], the Activity is reported as “++ (activity>50% of CFTR amplifier+VX-809 (3 uM) with compound at 10 uM and Compound A at 3 uM)”. With `Cc1cc(C)c2nc(-c3oc4ccccc4c3C)c(C(=O)O)cc2c1` [Compound 105, 6,8-Dimethyl-2-(3-methyl-1-benzofuran-2-yl)quinoline-3-carboxylic Acid] the Activity was “+ (activity<50% of an CFTR amplifier (Compound A)+VX-809 (3 uM) with compound at 10 uM and Compound A at 3 uM)”. In the case of `Cc1oc2ccccc2c1-c1cc(C(=O)O)c2c(OCc3ccccc3)ccc(C3CC3)c2n1` [Compound 106, 5-(Benzyloxy)-8-cyclopropyl-2-(2-methyl-1-benzofuran-3-yl)quinoline-4-carboxylic acid], the Activity is reported as “++ (activity>50% of CFTR amplifier+VX-809 (3 uM) with compound at 10 uM and Compound A at 3 uM)”. For `Cc1c(-c2cc(C(=O)O)c3c(OCc4ccccc4)ccc(C4CC4)c3n2)oc2ccccc12` [Compound 107, 5-(Benzyloxy)-8-cyclopropyl-2-(3-methyl-1-benzofuran-2-yl)quinoline-4-carboxylic acid], the Activity was “++ (activity>50% of CFTR amplifier+VX-809 (3 uM) with compound at 10 uM and Compound A at 3 uM)”. For `CCc1ccc(OCc2ccccc2)c2c(C(=O)O)cc(-c3oc4ccccc4c3C)nc12` [Compound 108, 5-(benzyloxy)-8-ethyl-2-(3-methyl-1-benzofuran-2-yl)quinoline-4-carboxylic acid], the Activity was “++ (activity>50% of CFTR amplifier+VX-809 (3 uM) with compound at 10 uM and Compound A at 3 uM)”. `Cc1c(-c2cc(C(=O)O)c3c(OCc4ccccc4)ccc(C(C)C)c3n2)oc2ccccc12` [Compound 109, 5-(Benzyloxy)-2-(3-methyl-1-benzofuran-2-yl)-8-(propan-2-yl)quinoline-4-carboxylic acid] was tested, and the Activity was “++ (activity>50% of CFTR amplifier+VX-809 (3 uM) with compound at 10 uM and Compound A at 3 uM)”. In the case of `Cc1c(-c2cc(C(=O)O)c3c(OCc4ccccc4)ccc(F)c3n2)oc2ccccc12` [Compound 110, 5-(Benzyloxy)-8-fluoro-2-(3-methyl-1-benzofuran-2-yl)quinoline-4-carboxylic acid], the Activity is reported as “++ (activity>50% of CFTR amplifier+VX-809 (3 uM) with compound at 10 uM and Compound A at 3 uM)”. `Cc1c(-c2cc(C(=O)O)c3c(OCc4ccccc4)ccc(Cl)c3n2)oc2ccccc12` [Compound 111, 5-(Benzyloxy)-8-chloro-2-(3-methyl-1-benzofuran-2-yl)quinoline-4-carboxylic acid] was tested, and the Activity was “+ (activity<50% of an CFTR amplifier (Compound A)+VX-809 (3 uM) with compound at 10 uM and Compound A at 3 uM)”. In the case of `Cc1c(-c2cc(C(=O)O)c3c(OCc4ccccc4)ccc(C#N)c3n2)oc2ccccc12` [Compound 112, 5-(benzyloxy)-8-cyano-2-(3-methyl-1-benzofuran-2-yl)quinoline-4-carboxylic Acid], the Activity is reported as “++ (activity>50% of CFTR amplifier+VX-809 (3 uM) with compound at 10 uM and Compound A at 3 uM)”. `CCc1ccc(C)c2nc(-c3oc4ccccc4c3C)cc(C(=O)O)c12` [Compound 113, 5-Ethyl-8-methyl-2-(3-methyl-1-benzofuran-2-yl)quinoline-4-carboxylic acid] was tested, and the Activity was “+ (activity<50% of an CFTR amplifier (Compound A)+VX-809 (3 uM) with compound at 10 uM and Compound A at 3 uM)”. For `Cc1c(-c2cc(C(=O)O)c3c(OCc4cccnc4)ccc(C)c3n2)oc2ccccc12` [Compound 114, 8-Methyl-2-(3-methyl-1-benzofuran-2-yl)-5-(pyridin-3-ylmethoxy)quinoline-4-carboxylic acid], the Activity was “+ (activity<50% of an CFTR amplifier (Compound A)+VX-809 (3 uM) with compound at 10 uM and Compound A at 3 uM)”. With `Cc1c(-c2cc(C(=O)O)c3c(OCc4ccccn4)ccc(C)c3n2)oc2ccccc12` [Compound 115, 8-Methyl-2-(3-methyl-1-benzofuran-2-yl)-5-(pyridin-2-ylmethoxy)quinoline-4-carboxylic acid] the Activity was “+ (activity<50% of an CFTR amplifier (Compound A)+VX-809 (3 uM) with compound at 10 uM and Compound A at 3 uM)”. `Cc1c(-c2cc(C(=O)O)c3c(NCc4ccccc4)ccc(C)c3n2)oc2ccccc12` [Compound 116, 5-(Benzylamino)-8-methyl-2-(3-methyl-1-benzofuran-2-yl)quinoline-4-carboxylic Acid] was tested, and the Activity was “++ (activity>50% of CFTR amplifier+VX-809 (3 uM) with compound at 10 uM and Compound A at 3 uM)”. For `Cc1c(-c2cc(C(=O)O)c3cc(OC(F)(F)F)cc(C)c3n2)oc2ccccc12` [Compound 117, 8-Methyl-2-(3-methyl-1-benzofuran-2-yl)-6-(trifluoromethoxy)quinoline-4-carboxylic acid], the Activity was “++ (activity>50% of CFTR amplifier+VX-809 (3 uM) with compound at 10 uM and Compound A at 3 uM)”. In the case of `Cc1c(-c2cc(C(=O)O)c3cc(OC(F)F)cc(C)c3n2)oc2ccccc12` [Compound 118, 6-(Difluoromethoxy)-8-methyl-2-(3-methyl-1-benzofuran-2-yl)quinoline-4-carboxylic acid], the Activity is reported as “++ (activity>50% of CFTR amplifier+VX-809 (3 uM) with compound at 10 uM and Compound A at 3 uM)”. For `Cc1c(-c2cc(C(=O)O)c3cc(OCC(F)F)cc(C)c3n2)oc2ccccc12` [Compound 119, 6-(2,2-Difluoroethoxy)-8-methyl-2-(3-methyl-1-benzofuran-2-yl)quinoline-4-carboxylic acid], the Activity was “+ (activity<50% of an CFTR amplifier (Compound A)+VX-809 (3 uM) with compound at 10 uM and Compound A at 3 uM)”. For `Cc1c(-c2cc(C(=O)O)c3c(OC(F)F)ccc(C)c3n2)oc2ccccc12` [Compound 120, 5-(Difluoromethoxy)-8-methyl-2-(3-methyl-1-benzofuran-2-yl)quinoline-4-carboxylic acid], the Activity was “++ (activity>50% of CFTR amplifier+VX-809 (3 uM) with compound at 10 uM and Compound A at 3 uM)”. In the case of `Cc1c(-c2cc(C(=O)O)c3c(OC(F)(F)F)ccc(C)c3n2)oc2ccccc12` [Compound 121, 8-Methyl-2-(3-methyl-1-benzofuran-2-yl)-5-(trifluoromethoxy)quinoline-4-carboxylic acid], the Activity is reported as “+ (activity<50% of an CFTR amplifier (Compound A)+VX-809 (3 uM) with compound at 10 uM and Compound A at 3 uM)”. For `Cc1c(-c2cc(C(=O)O)c3c(OCC(F)F)ccc(C)c3n2)oc2ccccc12` [Compound 122, 5-(2,2-Difluoroethoxy)-8-methyl-2-(3-methyl-1-benzofuran-2-yl)quinoline-4-carboxylic acid], the Activity was “++ (activity>50% of CFTR amplifier+VX-809 (3 uM) with compound at 10 uM and Compound A at 3 uM)”. For `Cc1oc2ccccc2c1-c1cc(C(=O)O)c2c(OC(F)F)ccc(C)c2n1` [Compound 123, 5-(Difluoromethoxy)-8-methyl-2-(2-methyl-1-benzofuran-3-yl)quinoline-4-carboxylic acid], the Activity was “+ (activity<50% of an CFTR amplifier (Compound A)+VX-809 (3 uM) with compound at 10 uM and Compound A at 3 uM)”. In the case of `Cc1oc2ccccc2c1-c1cc(C(=O)O)c2c(OCC(F)F)ccc(C)c2n1` [Compound 124, 5-(2,2-Difluoroethoxy)-8-methyl-2-(2-methyl-1-benzofuran-3-yl)quinoline-4-carboxylic acid], the Activity is reported as “+ (activity<50% of an CFTR amplifier (Compound A)+VX-809 (3 uM) with compound at 10 uM and Compound A at 3 uM)”. In the case of `Cc1c(-c2cc(C(=O)O)c3c(C)ccc(C)c3n2)oc2c(C)cccc12` [Compound 125, 2-(3,7-Dimethyl-1-benzofuran-2-yl)-5,8-dimethylquinoline-4-carboxylic acid], the Activity is reported as “++ (activity>50% of CFTR amplifier+VX-809 (3 uM) with compound at 10 uM and Compound A at 3 uM)”. For `Cc1ccc2oc(-c3cc(C(=O)O)c4c(C)ccc(C)c4n3)c(C)c2c1` [Compound 127, 2-(3,5-Dimethylbenzofuran-2-yl)-5,8-dimethylquinoline-4-carboxylic acid], the Activity was “++ (activity>50% of CFTR amplifier+VX-809 (3 uM) with compound at 10 uM and Compound A at 3 uM)”. With `Cc1ccc(C)c2c(C(=O)O)cc(-c3oc4cccc(C)c4c3C)nc12` [Compound 128, 2-(3,4-Dimethyl-1-benzofuran-2-yl)-5,8-dimethylquinoline-4-carboxylic acid] the Activity was “+ (activity<50% of an CFTR amplifier (Compound A)+VX-809 (3 uM) with compound at 10 uM and Compound A at 3 uM)”. In the case of `Cc1c(-c2cc(C(=O)O)c3c(C)ccc(C)c3n2)oc2c(Cl)cccc12` [Compound 129, 2-(7-Chloro-3-methylbenzofuran-2-yl)-5,8-dimethylquinoline-4-carboxylic acid], the Activity is reported as “+ (activity<50% of an CFTR amplifier (Compound A)+VX-809 (3 uM) with compound at 10 uM and Compound A at 3 uM)”.
